The values that follow come from publication PMC3222648, “Inotropic Action of the Puberty Hormone Kisspeptin in Rat, Mouse and Human: Cardiovascular Distribution and Characteristics of the Kisspeptin Receptor” (PLoS ONE, 2011).

“Also recorded” adds a separate entry of the source. Where no end group is shown, it is not given here.

Assay [1] concerns Kiss1r ^−/− atria. In words: Inotropic activity in atria of mice with targeted disruption of Kiss1r. Set-up: species or system mouse. The method, then:
(§1) Paired rat or mouse atria, or 4 mm strips of human atrial appendage, were mounted in 10 ml organ baths containing oxygenated Krebs solution at 37°C as described previously. Tension on the tissue was adjusted to 50% of that at which the maximum force was generated and then paced at 1 Hz, square-wave pulse, 5 ms duration, with the voltage just above threshold (<4.0 V). […] Experiments were terminated by the addition of 6.7 mM CaCl2 (final bath concentration 8.95 mM) and responses expressed as a % of this CaCl2 maximum.
(§2) Radioligand binding study data were analyzed using the iterative, non-linear curve fitting programs EBDA and LIGAND in the KELL package (Biosoft, Cambridge, UK). Pooled KD, BMAX and Hill slopes (nH) were expressed as mean±SEM and normalized to protein concentrations. In vitro pharmacology data agonist responses were expressed as %CaCl2 response in the paced atrial tissues and %KCl in the vasoconstrictor studies and data were fitted to a four parameter logistic equation using an iterative curve-fitting program (FigSys, Biosoft, Cambridge, UK) to obtain values for potency (pD2: the negative logarithm to the base 10 of the EC50) and maximum response (EMAX: %CaCl2 or %KCl, respectively) expressed as mean±SEM. Where appropriate, values were compared by one-way analysis of variance (ANOVA). […]

In assay [2] the test system is human coronary artery and umbilical vein. Conditions: ref [31]; cited from earlier work. The text has this: We have recently identified a further role for kisspeptin as a vasoactive peptide. We detected kisspeptin and kisspeptin receptor expression in human vasculature, and intriguingly found this to be restricted to the aorta, coronary artery and umbilical vein, vessels with the same developmental origin. […] However, to our knowledge, a cardiac role of kisspeptin has not yet been investigated in man, nor any cardiovascular effects ...

The target in assay [3] is T1, kisspeptin receptor (Homo sapiens, UniProt Q969F8).
T1 construct: cryostat-cut sections of human (15 µm) or rat (10 µm) heart; from tissue; host or cells: human right atria (control, dilated cardiomyopathy, ischaemic heart disease), cryostat sections
T1 sequence (Q969F8 whole entry): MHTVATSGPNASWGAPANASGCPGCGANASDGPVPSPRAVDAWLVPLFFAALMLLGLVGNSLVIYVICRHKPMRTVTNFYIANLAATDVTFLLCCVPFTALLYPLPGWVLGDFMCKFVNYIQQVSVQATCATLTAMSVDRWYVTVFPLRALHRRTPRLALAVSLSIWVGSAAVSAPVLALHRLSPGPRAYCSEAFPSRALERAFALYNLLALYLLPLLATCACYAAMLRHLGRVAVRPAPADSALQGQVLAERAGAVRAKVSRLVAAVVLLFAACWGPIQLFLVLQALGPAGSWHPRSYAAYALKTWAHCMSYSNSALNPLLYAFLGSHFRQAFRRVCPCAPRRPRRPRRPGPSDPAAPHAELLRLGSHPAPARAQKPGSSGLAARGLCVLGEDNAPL
In words: Inotropic activity in human paced atrial strips. To be noted: human atrial strips. The method, then: (§3) Paired rat or mouse atria, or 4 mm strips of human atrial appendage, were mounted in 10 ml organ baths containing oxygenated Krebs solution at 37°C as described previously. […] Experiments were terminated by the addition of 6.7 mM CaCl2 (final bath concentration 8.95 mM) and responses expressed as a % of this CaCl2 maximum. Radioligand binding study data were analyzed using the iterative, non-linear curve fitting programs EBDA and LIGAND in the KELL package (Biosoft, Cambridge, UK). Pooled KD, BMAX and Hill slopes (nH) were expressed as mean±SEM and normalized to protein concentrations. […] Where appropriate, values were compared by one-way analysis of variance (ANOVA). In all cases P<0.05 was considered statistically significant and n-values were the number of animals or patients from which data were obtained.

Assay [4] has as its target T2, kisspeptin receptor (Mus musculus, UniProt Q91V45).
T2 construct: Paired rat or mouse atria; from tissue; host or cells: mouse paired atria, wild type
In words: Inotropic activity in mouse paced atria, wild type (Kiss1r ^+/+). To be noted: % of CaCl2 maximum (8.95 mM final), mean ± SEM, n = 6, read-out: Emax (maximum positive inotropic response). As to the method:
as §1, §2

In assay [5] the test system is endothelium-denuded rat aortic rings. Nature of the assay: Vasoconstrictor activity in endothelium-denuded rat aorta. Conditions: mean ± SEM, ET-1 n = 7, KP-10 tissues from 4 animals, KP-54 tissues from 3 animals. As to the method:
Rat thoracic aorta was cleaned of connective tissue and cut into 4 mm rings and the endothelial layer removed by gentle rubbing. Tissues were set to a basal tension at which the maximum response to 100 mM KCl was generated and subsequent responses to kisspeptins were expressed as % of this KCl response. Aortic rings were then contracted with 10 µM phenylephrine and 1 µM ACh was added; a reduction in the phenylephrine response of <10% was taken as evidence of removal of endothelium. […] Experiments were terminated by the addition of 100 mM KCl and agonist responses were expressed as a % of this KCl maximum.
Radioligand binding study data were analyzed using the iterative, non-linear curve fitting programs EBDA and LIGAND in the KELL package (Biosoft, Cambridge, UK). Pooled KD, BMAX and Hill slopes (nH) were expressed as mean±SEM and normalized to protein concentrations. In vitro pharmacology data agonist responses were expressed as %CaCl2 response in the paced atrial tissues and %KCl in the vasoconstrictor studies and data were fitted to a four parameter logistic equation using an iterative curve-fitting program (FigSys, Biosoft, Cambridge, UK) to obtain values for potency (pD2: the negative logarithm to the base 10 of the EC50) and maximum response (EMAX: %CaCl2 or %KCl, respectively) expressed as mean±SEM. Where appropriate, values were compared by one-way analysis of variance (ANOVA). In all cases P<0.05 was considered statistically significant and n-values were the number of animals or patients from which data were obtained.

The conditions of assay [6]: ref [47]; cited from earlier work.
Assay [7] deals with kisspeptin receptor (Rattus norvegicus, UniProt Q924U1). Nature of the assay: Inotropic activity in rat paced paired atria. The arrangement: Paired rat or mouse atria; from tissue; host or cells: rat paired atria. The method, then: as §3
kisspeptin receptor (Rattus norvegicus, UniProt Q924U1), sequence (Q924U1 whole entry): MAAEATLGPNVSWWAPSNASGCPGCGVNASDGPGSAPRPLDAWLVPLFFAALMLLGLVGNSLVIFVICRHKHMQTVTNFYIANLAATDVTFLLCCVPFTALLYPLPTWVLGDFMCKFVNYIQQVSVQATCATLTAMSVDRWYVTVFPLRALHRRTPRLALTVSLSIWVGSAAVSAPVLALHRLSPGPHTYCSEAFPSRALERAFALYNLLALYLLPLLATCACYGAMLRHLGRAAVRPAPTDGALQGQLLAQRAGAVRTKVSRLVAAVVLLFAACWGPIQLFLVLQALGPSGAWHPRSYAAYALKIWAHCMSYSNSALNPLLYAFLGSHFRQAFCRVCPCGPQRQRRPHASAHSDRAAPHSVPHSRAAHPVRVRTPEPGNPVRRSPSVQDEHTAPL

T2 sequence (Q91V45 whole entry): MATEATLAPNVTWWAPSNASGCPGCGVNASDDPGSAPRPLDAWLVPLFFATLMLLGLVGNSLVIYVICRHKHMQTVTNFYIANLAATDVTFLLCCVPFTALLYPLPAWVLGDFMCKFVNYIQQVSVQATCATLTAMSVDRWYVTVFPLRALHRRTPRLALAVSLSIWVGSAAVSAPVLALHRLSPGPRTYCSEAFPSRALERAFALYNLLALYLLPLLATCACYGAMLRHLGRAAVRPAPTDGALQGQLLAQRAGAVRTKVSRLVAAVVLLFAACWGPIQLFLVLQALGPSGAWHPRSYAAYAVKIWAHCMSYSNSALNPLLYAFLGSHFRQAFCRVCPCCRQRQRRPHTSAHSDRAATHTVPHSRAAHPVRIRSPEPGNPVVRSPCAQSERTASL

Regarding “kisspeptin: Kisspeptin, or KP-54; also used generically for the endogenous peptides and kisspeptin-like immunoreactivity (GTSLSPPPESSGSPQQPGLSAPHSRQIPAPQGAVLVQREKDLPNYNWNSFGLRF; ends and bridges not checked; UniProt Q15726 68-121, looked up)”, the “inotropic response in Kiss1r ^−/− atria” value in assay [1] is listed as “No response”. Also, the vasoconstrictor activity entry in assay [2] is “potent vasoconstrictor”.

Take `CC[C@H](C)[C@H](NC(=O)[C@H](CCC(N)=O)NC(=O)[C@H](CCCNC(=N)N)NC(=O)[C@H](CO)NC(=O)[C@H](Cc1c[nH]cn1)NC(=O)[C@@H]1CCCN1C(=O)[C@H](C)NC(=O)[C@H](CO)NC(=O)[C@H](CC(C)C)NC(=O)CNC(=O)[C@@H]1CCCN1C(=O)[C@H](CCC(N)=O)NC(=O)[C@H](CCC(N)=O)NC(=O)[C@H](CCCNC(=N)N)NC(=O)[C@H](CO)NC(=O)CNC(=O)[C@H](CO)NC(=O)[C@H](CO)NC(=O)[C@H](CCC(=O)O)NC(=O)[C@@H]1CCCN1C(=O)[C@@H]1CCCN1C(=O)[C@@H]1CCCN1C(=O)[C@H](CO)NC(=O)[C@H](CC(C)C)NC(=O)[C@H](CO)NC(=O)[C@@H](NC(=O)CN)[C@@H](C)O)C(=O)N1CCC[C@H]1C(=O)N[C@@H](C)C(=O)N1CCC[C@H]1C(=O)N[C@@H](CCC(N)=O)C(=O)NCC(=O)N[C@@H](C)C(=O)N[C@H](C(=O)N[C@@H](CC(C)C)C(=O)N[C@H](C(=O)N[C@@H](CCC(N)=O)C(=O)N[C@@H](CCCNC(=N)N)C(=O)N[C@@H](CCC(=O)O)C(=O)N[C@@H](CCCCN)C(=O)N[C@@H](CC(=O)O)C(=O)N[C@@H](CC(C)C)C(=O)N1CCC[C@H]1C(=O)N[C@@H](CC(N)=O)C(=O)N[C@@H](Cc1ccc(O)cc1)C(=O)N[C@@H](CC(N)=O)C(=O)N[C@@H](Cc1c[nH]c2ccccc12)C(=O)N[C@@H](CC(N)=O)C(=O)N[C@@H](CO)C(=O)N[C@@H](Cc1ccccc1)C(=O)NCC(=O)N[C@@H](CC(C)C)C(=O)N[C@@H](CCCNC(=N)N)C(=O)N[C@@H](Cc1ccccc1)C(N)=O)C(C)C)C(C)C` [KP-54]: the maximal response (Emax) (in general, the size of the effect at its maximum, as opposed to the concentration needed) in assay [3] (% of CaCl2 maximum (8.95 mM final), mean ± SEM, n = 5, read-out: EMAX (maximum positive inotropic response)) amounted to 82 ± 13%; in assay [4], 26 ± 4%; in assay [7] (read-out: EMAX (maximum positive inotropic response)) it was 14 ± 2%. The lusitropic effects result in assay [3] (half time to peak force and half time to relaxation) is given as “Lusitropic effects were not observed”; in assay [7] (rat atria, half time to peak force and half time to relaxation), “Lusitropic effects were not observed”. The “inotropic response in Kiss1r ^−/− atria” value in assay [1] was “lack of effect; also recorded: no inotropic response”. Besides, the “EMAX (maximum vasoconstrictor response)” value in assay [5] (% of 100 mM KCl maximum, endothelium-denuded rat aorta) was found to be 97±1 % KCl. The “pD2 (vasoconstriction)” value in assay [5] (endothelium-denuded rat thoracic aortic rings, KP-10, KP-54 10^−12–3×10^−9 M, ET-1 10^−10–3×10^−7 M) turned out to be 10.47±0.26. For the same molecule, in assay [6], the anti-angiogenic activity entry was “anti-angiogenic”.
